The values that follow come from publication PMC6349869, “The palladacycle complex AJ-5 induces apoptotic cell death while reducing autophagic flux in rhabdomyosarcoma cells” (Cell Death Discovery, 2019).

Holding throughout (assay type): cell-based, human
For one experiment, the system named is AX-OH-1 cells. Kind of experiment: MTT cell viability assay, AX-OH-1. The following applies: AX-OH-1 (aRMS), 48 h. How it is done:
(§1) RH30 human aRMS cells (kindly provided by Associate Professor Judith Davie, Southern Illinois University), AX-OH-1 human aRMS and FL-OH-1 human eRMS cells (kindly provided by Professor Stefan Bath, University of Cape Town) were cultured in Roswell Park Memorial Institute Medium (RPMI)-1640 (Sigma Aldrich, Missouri, USA). […] Cell morphology was monitored using an Olympus CKX41 inverted microscope (MSAC Ltd, UK) and imaged with an EVOS™ XL AMEX1000 Core Imaging System (Thermo Fisher Scientific, Massachusetts, USA).
(§2) Cells were seeded in 96-well plates and treated the next day with a range of AJ-5 concentrations (0.1–1.0 μM) or vehicle ([…]) for 48 h. Cell viability was measured using the 3-(4,5-dimethylthiazol-2-yl)-2,5-diphenyl-trazolium bromide (MTT) assay (11465007001; Sigma Aldrich) according to the manufacturer’s instructions. Mean cell viability was calculated as a percentage of the mean vehicle control. At least three independent experiments in quadruplicate were performed from which the half maximal inhibitory concentration (IC50) was determined using GraphPad Prism version 6.0 (GraphPad Software, California, USA). The selectivity index (SI) was determined by dividing the IC50 of a normal cell line by the IC50 of a cancer cell line.
On the technique in general: Tetrazolium assays rely on reduction of a dye to a coloured formazan, in cell work by metabolically active cells.

Experiment [1] has as its system RD cells. Briefly: MTT cell viability assay, RD. Conditions: RD (eRMS), 48 h. How it is done: as §1, §2
The next experiment relates to FL-OH-1 cells. Briefly: MTT cell viability assay, FL-OH-1. The following applies: FL-OH-1 (eRMS), 48 h. How it is done: as §1, §2
The subject of the next experiment is SW1353 cells. Briefly: MTT cell viability assay, SW1353 chondrosarcoma. Conditions: 48 h. As for the experimental part:
as §1, §2

The subject of the next experiment is SW872 cells. Kind of experiment: MTT cell viability assay, SW872 liposarcoma. Conditions: 48 h.
The next experiment deals with SW982 cells. Briefly: MTT cell viability assay, SW982 synovial sarcoma. Conditions: 48 h. How it is done:
as §1, §2

In the next experiment the test system is HT1080 cells. Kind of experiment: MTT cell viability assay, HT1080 fibrosarcoma. Conditions: 48 h.
The subject of another experiment is MG-63 cells. Briefly: MTT cell viability assay, MG-63 osteosarcoma. Conditions: 48 h.
Experiment [2] concerns RD cells. Kind of experiment: Autophagic flux by western blotting (p62; LC3II with bafilomycin A1), RD. How it is done: AJ-5, synthesized as previously described, was dissolved in dimethyl sulfoxide (DMSO) (D8418; Sigma Aldrich) to give a 5 mM AJ-5 stock which was stored at room temperature (RT) and used within 5 days. AJ-5 was diluted in cell culture medium to achieve the desired final concentration and a vehicle control (DMSO) of the same concentration was prepared simultaneously. Cells were treated at a confluency of 60%. For western blot experiments to determine autophagy flux, cells were treated with 200 nM bafilomycin A1 (B1793; Sigma Aldrich) for 2 h post AJ-5 treatment. Doxorubicin (z/26/0167; Teva Pharmaceutical Industries Ltd, Israel) was used as a positive control in Caspase-Glo experiments at a concentration of 0.5 µM.
Cells were lysed at 4 °C in whole-cell lysis buffer (0.125 M Tris-HCl pH 6.8, 4% SDS, 0.2% glycerol, 0.1% β-mercaptoethanol and a pinch of bromophenol blue) and boiled for 10 min. Proteins were resolved by SDS-PAGE (6–15% gels) and transferred to Hybond ECL membranes (Amersham, UK). […] Densitometry readings were obtained using ImageJ v1.50i[58] and protein expression levels were represented as a ratio of protein of interest/p38 loading control normalized to the vehicletreated control sample where appropriate. […]
For orientation: Immunoblotting shows a protein as a band on a membrane.

Bounds are passed on as bounds.

As to `CC(C)c1cccc(C(C)C)c1[N+]1=Cc2cccc[c]2[Pd-2]1([Cl])[P+](CC[P+](c1ccccc1)(c1ccccc1)[Pd-2]1([Cl])[c]2ccccc2C=[N+]1c1c(C(C)C)cccc1C(C)C)(c1ccccc1)c1ccccc1` (stereo not shown) [AJ-5], the IC50 – broadly, the concentration needed to halve the response being measured – is no more than 200 nM in the experiment with AX-OH-1 cells; no more than 200 nM with RD cells [1]; no more than 200 nM in the experiment on FL-OH-1 cells; less than 300 nM with SW1353 cells; less than 300 nM with SW872 cells; less than 300 nM in the experiment on SW982 cells. The IC50 in the experiment on HT1080 cells and in the experiment on MG-63 cells was less than 300 nM each time. The “Autophagic flux judged by p62 levels” value with RD cells [2] (0.1 µM or IC50, 24 and 48 h) is on record as “increases autophagic flux”. In the experiment on RD cells [2] (IC50 24 h then 200 nM bafilomycin A1 2 h), the “LC3II in the presence of bafilomycin A1, compared with vehicle” value is recorded as “negligible change in LC3II”.
